System: mice
Assay: Kidney toxicity determined by blood examination
Type: in vivo, mouse
Settings: for Creatinine in serum / Urea nitrogen in serum / Glucose in serum: average of eight mice; for Creatinine in serum: None: 0.4; for Urea nitrogen in serum: None: 20; for Glucose in serum: None: 78
Procedure: (3) Kidney toxicity determined by blood examination:
After lapse of one day from the administration, the mice were fasted (only water was given) and then after 18 hours, blood was collected and serum was obtained therefrom. Glucose, urea nitrogen and creatinine in the serum were examined by clinical examination reagent (trademark: FUJI DRYCHEMSLIDE manufactured by Fuji Photo Film Co., Ltd.). The results are shown by average value of eight mice in Table 3.

C=CCOC(=O)c1cc(C(=O)OCC=C)c2c(n1)C(=O)C(=O)c1cc(C(=O)OCC=C)[nH]c1-2 [PQQ triallyl ester]
Creatinine in serum (i.p. 40 mg/kg): 0.3 mg/dL | Urea nitrogen in serum (i.p. 40 mg/kg): 12 mg/dL | Glucose in serum (i.p. 40 mg/kg): 42 mg/dL | Creatinine in serum (i.p. 80 mg/kg): 0.2 mg/dL | Urea nitrogen in serum (i.p. 80 mg/kg): 12 mg/dL | Glucose in serum (i.p. 80 mg/kg): 47 mg/dL | Creatinine in serum (i.p. 160 mg/kg): 0.2 mg/dL | Urea nitrogen in serum (i.p. 160 mg/kg): 10 mg/dL | Glucose in serum (i.p. 160 mg/kg): 59 mg/dL | Creatinine in serum (i.p. 200 mg/kg): 0.1 mg/dL | Urea nitrogen in serum (i.p. 200 mg/kg): 9 mg/dL | Glucose in serum (i.p. 200 mg/kg): 64 mg/dL | creatinine in serum (in words) (i.p., versus no compound): nearly the same | glucose in serum (in words) (i.p., versus no compound): nearly the same | urea nitrogen in serum (in words) (i.p., versus no compound): nearly the same | kidney toxicity (in words) (mouse, in vivo, ip): no kidney toxicity was observed
